Experimental data reported in patent US9771389B2, “Tylosin derivatives and method for preparation thereof” (BAYER ANIMAL HEALTH GMBH, priority 2013, dated 2017).
Converted amounts (≈) assume the structure as drawn.

What was measured:
[1] = test system: S. aureus bacteria (strain Newbould); assay: Mouse mastitis model of infection; format: in vivo, mice; details: for mean S. aureus count in glands: 14 hours after application, untreated 8.64 log 10
Text: The clinical efficacy of compound YT709 against mastitis caused by S. aureus was shown in lactating mice according to a recognized published procedure (E. Brouillette, G. Grondin, C. Lefebvre, B. G. Talbot, F. Malouin, Mouse mastitis model of infection for antimicrobial compound efficacy studies against intracellular and extracellular forms of Staphylococcus aureus, Veterinary Microbiology, 101, (2004), 253-262). Into the glands of lactating mice S. aureus bacteria (strain Newbould) were instilled and allowed to multiply. Bacterium S. aureus Newbould is an isolate which was isolated from a clinical case of bovine mastitis and which also causes typical mastitis infection in dairy cattle upon experimental, intramammary infection. Four hours after the intramammary infection of lactating mice with S. aureus Newbould, compound YT709 was instilled into the infected glands. Different intramammary dosages of YT709 were tested and their efficacy compared to an infected, untreated control group. Fourteen hours after intramammary application of YT709, the glands of the treated and untreated mice were removed, homogenized and the number of S. aureus bacteria counted in 10-fold dilutions of the homogenized glands. The mean S. aureus count of 8 untreated glands was 10^8.64 (8.64 log 10) bacteria. The mean S. aureus count in 6 glands that had been treated with 200 microgram YT709 was 10^5.10 bacteria (5.10 log 10). […] The mean S. aureus count in the 5 glands that had been treated with 400 microgram YT709 was 10^2.34 bacteria (2.34 log 10).

[2] = test system: Actinobacillus pleuropneumoniae, 6 isolates; assay: MIC against Actinobacillus pleuropneumoniae isolates; format: cell-based; details: 6ISOLATES; 6 Actinobacillus pleuropneumoniae isolates; broth dilution method; read-out: Range of minimum inhibitory concentrations (MIC)
Procedure: (§1) Minimal inhibitory concentrations (MICs) were determined against the most prevalent pathogens in cattle (Mannheimia Haemolytica, 3 isolates) and swine (A. pleuropneumoniae, 6 isolates). In addition the activity of several compounds was tested against two bacterial species, i.e. Mannheimia haemolytica and Actinobacillus pleuropneumoniae, which are considered as the most important bacterial respiratory pathogens in cattle and swine, respectively.

[3] = test system: Mannheimia haemolytica, 3 isolates; assay: MIC against Mannheimia haemolytica isolates; format: cell-based; details: Mannheimia haemolytica, 3ISOLATES, 3 Mannheimia haemolytica isolates; broth dilution method; read-out: Range of minimum inhibitory concentrations (MIC)
Procedure: as §1

Staphylococcus aureus = assay: MIC50 mastitis pathogens, broth dilution; format: cell-based; details: S. aureus, 7 to 12 isolates, 24 hours
Text: (§2) The activity of several compounds against bacterial mastitis pathogens has been tested under in-vitro conditions according to a recognized procedure (CLSI, document […]-A3, 2008). In this test 7 to 12 representative bacteria belonging to 7 bacterial species that typically cause mastitis in dairy cattle, i.e. Staphylococcus aureus, coagulase negative staphylococci (CNS), Streptococcus uberis, Streptococus dysgalactiae, Streptococcus agalactiae, Arcanobacterium pyogenes and Escherichia coli, were exposed to two-fold dilutions of the test compounds. After 24 hours of incubation the concentration that inhibited the growth of this bacteria was determined. It could be shown that all these bacterial mastitis pathogens were highly susceptible to the test compounds.

[4] = test system: coagulase negative staphylococci (CNS); assay: MIC50 mastitis pathogens, broth dilution; format: cell-based; details: 7 to 12 isolates, 24 hours
Text: as §2

Arcanobacterium pyogenes = assay: MIC50 mastitis pathogens, broth dilution; format: cell-based; details: Trueperella pyogenes, A. pyogenes, 7 to 12 isolates, 24 hours
Text: as §2

Escherichia coli = assay: MIC50 mastitis pathogens, broth dilution; format: cell-based; details: E. coli, 7 to 12 isolates, 24 hours
Text: as §2

Streptococcus agalactiae = assay: MIC50 mastitis pathogens, broth dilution; format: cell-based; details: Str agalactiae, 7 to 12 isolates, 24 hours
Text: as §2

[5] = test system: Streptococus dysgalactiae; assay: MIC50 mastitis pathogens, broth dilution; format: cell-based; details: Str dysgalactiae, 7 to 12 isolates, 24 hours
Text: as §2

Streptococcus uberis = assay: MIC50 mastitis pathogens, broth dilution; format: cell-based; details: Str uberis, 7 to 12 isolates, 24 hours
Text: as §2

[6] = test system: Micrococcus luteus ATCC9341; assay: Paper disc assay, Micrococcus luteus; format: cell-based; details: column 1
Procedure: (§3) (2) Antibacterial activities against other bacteria were determined with Micrococcus luteus ATCC9341 (1), Bacillus subtilis […] (s), Escherichia coli NIHJ (c), Xanthomonas campestris KB88 (X), Mucor racemosus IFO 4581 (Mu) and Candida albicans ATCC 64548 (Ca).
(§4) Bacillus subtilis ATCC6633 was incubated in Davis synthetic medium and then the seed broth was combined with the medium in the ratio of 1:99 to obtain a test plate. Micrococcus luteus ATCC9341, Escherichia coli NIHJ and Xanthomonas campestris KB88 were respectively incubated in Nutrient agar medium and inoculated at 0.2%, 0.5% and 1.0%. Mucor racemosus IFO 4581 and Candida albicans ATCC 64548 were respectively incubated in GY agar medium and then inoculated at 0.3% and 0.2%.
(§5) A paper disc (ADVANTEC, Φ:6 mm) was impregnated with a solution of test compound and dried under reduced pressure. The paper disc was put on the test plate and it was incubated for 24 hours at 37° C. After incubation, the inhibition zone diameter and clarity (A to E) were determined.

Escherichia coli NIHJ = assay: Paper disc assay, Escherichia coli; format: cell-based; details: c
Procedure: as §3, §4, §5

[7] = test system: M. hemolytica KB346 (Tilmicosin-low sensitivity strain); assay: Paper disc assay, M. hemolytica KB346; format: cell-based, Mannhemia hemolytica; details: 10 mg/6 mm disk; Table 5
Procedure: (1) Antibacterial activities against Mannheimia and Pasteurella were determined by the following steps: • 1) M. hemolytica KB345 (Tilmicosin-sensitivity strain) and M. hemolytica KB346 (Tilmicosin-low sensitivity strain) were provided. KB 345 strain stored at −80° C. was seeded to BHIB agar medium (10 mL) by using Microbank beads (Pro-Lab) and platinum nail. After statically incubating the KB 345 strain for 24 hours at 37° C., it was seeded to maintaining slant BHIB agar medium (7 mL) by using platinum loop, further statically incubated for 24 hours at 37° C. to obtain slant. One platinum loop of KB 345 strain stored at the slant was inoculated into a large test tube charged with BHIB liquid medium (10 mL) and then incubated for 24 hours at 37° C. with shaking. • 2) A paper disc (ADVANTEC, Φ:6 mm) was impregnated with a solution of test compound and dried under reduced pressure. • 3) To a melted BHIB agar medium was inoculated 1% of the broth obtained from step 1) above to prepare a test plate. After the medium set, the paper disc prepared in step 2) above was put on the plate and it was incubated at 37° C. • 4) After one day, the inhibition zone diameter and clarity (A to E) were determined. For KB346 strain, the same procedures were repeated.

[8] = test system: Bacillus subtilis ATCC6633; assay: Paper disc assay, Bacillus subtilis; format: cell-based; details: S
Procedure: as §3, §4, §5

[9] = test system: Xanthomonas campestris KB88; assay: Paper disc assay, Xanthomonas campestris; format: cell-based; details: X
Procedure: as §3, §4, §5

SMILES | MIC [2] [µg/mL] | MIC [3] [µg/mL] | MIC50 (Staphylococcus aureus) [µg/mL] | MIC50 [4] [µg/mL] | MIC50 (Arcanobacterium pyogenes) [µg/mL] | MIC50 (Escherichia coli) [µg/mL] | MIC50 (Streptococcus agalactiae) [µg/mL] | MIC50 [5] [µg/mL] | MIC50 (Streptococcus uberis) [µg/mL] | Inhibition zone ([6]; 0.1 mg/6 mm disc) [mm] | Inhibition zone ([6]; 1 mg/6 mm disc) [mm] | Inhibition zone ([6]; 10 mg/6 mm disc) [mm] | Inhibition zone (Escherichia coli NIHJ; 10 mg/6 mm disc) [mm] | Inhibition zone ([8]; 0.1 mg/6 mm disc) [mm] | Inhibition zone ([8]; 1 mg/6 mm disc) [mm] | Inhibition zone ([8]; 10 mg/6 mm disc) [mm] | Inhibition zone ([9]; 0.1 mg/6 mm disc) [mm] | Inhibition zone ([9]; 1 mg/6 mm disc) [mm] | Inhibition zone ([9]; 10 mg/6 mm disc) [mm] | further results
CC[C@H]1OC(=O)C[C@@H](O)[C@H](C)[C@@H](O[C@@H]2OC(C)[C@@H](O)C(N(C)C)C2O)[C@@H](CCN(Cc2ccccc2)Cc2cn(-c3cnc4ccccc4c3)nn2)C[C@@H](C)C(=O)/C=C/C(C)=C/[C@@H]1CO (stereo partly drawn) [YT709] | 2 to 4 (≈ 2.23 to 4.46 µM) | 2 to 4 (≈ 2.23 to 4.46 µM) | ≤ 0.03 | ≤ 0.03 | 0.008 (≈ 0.00892 µM) | 16 (≈ 17.8 µM) | 0.06 (≈ 0.0669 µM) | 0.06 (≈ 0.0669 µM) | 0.06 (≈ 0.0669 µM) |  |  |  |  |  |  |  |  |  |  | reduction of number of bacteria vs untreated glands ([1]; 200 microgram intramammary): about 3500 fold; mean S. aureus count in glands ([1]; 200 microgram intramammary, 6 glands): 5.10 log 10; glands in which the infection was cleared ([1]; 400 microgram intramammary): 2 out of 5; reduction of number of bacteria vs untreated glands ([1]; 400 microgram intramammary): about two million; mean S. aureus count in glands ([1]; 400 microgram intramammary, 5 glands): 2.34 log 10
CC[C@H]1OC(=O)C[C@@H](O)[C@H](C)[C@@H](O[C@@H]2O[C@H](C)[C@@H](O)[C@H](N(C)C)[C@H]2O)[C@@H](CCN2C[C@H](C)C[C@H](C)C2)C[C@@H](C)C(=O)/C=C/C(C)=C/[C@@H]1CO[C@@H]1O[C@H](C)[C@@H](O)[C@@H](OC)[C@H]1OC [Tilmicosin, tilmicosin, reference compound] |  |  |  |  |  |  |  |  |  | 12 | 19 | 27.5 | 20 | 14 | 11 | 18 | 12 | 20 | 30 | Inhibition zone (Escherichia coli NIHJ; 1 mg/6 mm disc): 13 mm; Inhibition zone [7]: 11.0 mm
CC[C@H]1OC(=O)C[C@@H](O)[C@H](C)[C@@H](O[C@@H]2O[C@H](C)[C@@H](O)[C@H](N(C)C)[C@H]2O)[C@@H](CCn2cc(-c3ccsc3)nn2)C[C@@H](C)C(=O)/C=C/C(C)=C/[C@@H]1CO[C@@H]1O[C@H](C)[C@@H](O)[C@@H](OC)[C@H]1OC [YT14, 20-(4-(thiophene-3-yl)-1H-1,2,3-triazol-1-yl)-20-deoxodesmycosin] |  |  |  |  |  |  |  |  |  | 13.5 | 20.5 | 26.5 | 7 | 8 | 11 | 15 | 7 | 16 | 22 | 
CC[C@H]1OC(=O)C[C@@H](O)[C@H](C)[C@@H](O[C@@H]2OC(C)[C@@H](O)C(N(C)C)C2O)[C@@H](CCNCCn2cc(-c3cnc4ccccc4c3)nn2)C[C@@H](C)C(=O)/C=C/C(C)=C/[C@@H]1CO (stereo partly drawn) [YT732] | 2 to 4 (≈ 2.44 to 4.87 µM) | 1 to 4 (≈ 1.22 to 4.87 µM) | 0.5 (≈ 0.609 µM) | 0.25 (≈ 0.304 µM) | 0.008 (≈ 0.00974 µM) | 8 (≈ 9.74 µM) | 0.03 (≈ 0.0365 µM) | 0.12 (≈ 0.146 µM) | 0.03 (≈ 0.0365 µM) |  |  |  |  |  |  |  |  |  |  | 
CC[C@H]1OC(=O)C[C@@H](O)[C@H](C)[C@@H](O[C@@H]2OC(C)[C@@H](O)C(N(C)C)C2O)[C@@H](CCNCCn2cc(-c3ccc(-c4ccccc4)cc3)nn2)C[C@@H](C)C(=O)/C=C/C(C)=C/[C@@H]1CO (stereo partly drawn) [YT721] | 8 (≈ 9.46 µM) | 1 to 4 (≈ 1.18 to 4.73 µM) | 0.5 (≈ 0.591 µM) | 0.5 (≈ 0.591 µM) | 0.06 (≈ 0.0709 µM) | 8 (≈ 9.46 µM) | 0.125 (≈ 0.148 µM) | 0.25 (≈ 0.295 µM) | 0.12 (≈ 0.142 µM) |  |  |  |  |  |  |  |  |  |  | 
